In PMC2746095 (Biochemistry, 2009):
Substitutions are numbered along the chain they refer to.

Assays:
[1] = molecular target: T1, R. etli pyruvate carboxylase (RePC) (Rhizobium etli, UniProt Q2K340, T882A); test: bicarbonate-dependent ATPase, coupled Pi assay, partial inhibition fit; format: biochemical
T1 sequence (Q2K340 1-1154 T882A): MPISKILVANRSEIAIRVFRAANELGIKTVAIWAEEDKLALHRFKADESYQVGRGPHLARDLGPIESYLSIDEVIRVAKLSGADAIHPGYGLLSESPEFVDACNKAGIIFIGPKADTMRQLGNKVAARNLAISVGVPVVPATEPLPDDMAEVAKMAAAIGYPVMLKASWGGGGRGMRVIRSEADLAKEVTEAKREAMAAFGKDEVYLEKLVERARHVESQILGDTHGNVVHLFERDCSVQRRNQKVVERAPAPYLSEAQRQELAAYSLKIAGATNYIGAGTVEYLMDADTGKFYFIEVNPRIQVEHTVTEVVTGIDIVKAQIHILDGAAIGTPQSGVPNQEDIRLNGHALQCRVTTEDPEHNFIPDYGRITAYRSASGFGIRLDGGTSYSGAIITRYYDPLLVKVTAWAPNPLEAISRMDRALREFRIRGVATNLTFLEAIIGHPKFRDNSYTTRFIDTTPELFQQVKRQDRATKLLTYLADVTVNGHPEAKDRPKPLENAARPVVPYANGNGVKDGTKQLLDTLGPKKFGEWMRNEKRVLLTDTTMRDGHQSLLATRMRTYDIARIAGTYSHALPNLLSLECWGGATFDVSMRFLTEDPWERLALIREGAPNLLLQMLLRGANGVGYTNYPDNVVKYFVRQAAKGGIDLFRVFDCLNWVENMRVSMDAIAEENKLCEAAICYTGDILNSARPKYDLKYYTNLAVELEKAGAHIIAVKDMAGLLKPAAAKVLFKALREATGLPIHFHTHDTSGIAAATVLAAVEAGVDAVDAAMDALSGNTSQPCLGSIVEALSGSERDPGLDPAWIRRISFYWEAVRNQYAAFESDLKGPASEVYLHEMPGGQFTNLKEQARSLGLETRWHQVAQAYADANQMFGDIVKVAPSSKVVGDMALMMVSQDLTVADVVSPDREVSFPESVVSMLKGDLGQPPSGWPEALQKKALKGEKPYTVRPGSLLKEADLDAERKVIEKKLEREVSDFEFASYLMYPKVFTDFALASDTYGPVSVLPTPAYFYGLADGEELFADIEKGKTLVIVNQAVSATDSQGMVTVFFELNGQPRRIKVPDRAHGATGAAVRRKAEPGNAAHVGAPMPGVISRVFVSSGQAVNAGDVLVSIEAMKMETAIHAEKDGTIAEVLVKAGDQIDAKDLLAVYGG

[2] = molecular target: T2, R. etli pyruvate carboxylase (RePC) (Rhizobium etli, UniProt Q2K340); test: bicarbonate-dependent ATPase, coupled Pi assay, fit to substrate inhibition; format: biochemical; conditions: 0-20 mM pyruvate, text prints 10.2 ± 0.1 mM, 100 mM Tricine pH 7.5, 25 °C, 10 mM HCO3-, 2.5 mM MgATP, 2.5 mM MgCl2, 0.25 mM acetyl-CoA
T2 sequence (Q2K340 1-1154): T1 sequence (Q2K340 1-1154 T882A) with A882T

Row | Structure (SMILES) | Ki [1] [µM] | Ki [2] [µM]
1 | NC(=O)C(=O)O [oxamate] | 1000 ± 200 | –
2 | CC(=O)C(=O)O [pyruvate] | 800 ± 100 | 10000 ± 1000
